These results are taken from ChEMBL document CHEMBL4043168, “The design and SAR of a novel series of 2-aminopyridine based LRRK2 inhibitors” (Bioorg Med Chem Lett, 2017).

By inhibition is commonly meant the relative decrease from the control value, in per cent.

Structures are written as SMILES.

The target in test [1] is Cyclin-dependent kinase 5 (Homo sapiens) (UniProt Q00535). The test is described as follows: Inhibition of CDK5 labeling at conserved Lys2 (DLKPQNLLINR) in human PBMC at 1 uM.
Test [2] concerns the target Ribosomal protein S6 kinase alpha-5 (Homo sapiens) (UniProt O75582). The experiment in a line: Inhibition of MSK1 domain1 conserved Lys2 (DIKLENILLDSNGHVVLTDFGLSK) in human PBMC at 0.1 uM.
The target in test [3] is Phosphatidylinositol 4,5-bisphosphate 3-kinase catalytic subunit beta isoform (Homo sapiens) (UniProt P42338). The test is described as follows: Inhibition of PIK3CB ATP binding site (VFGEDSVGVIFKNGDDLRQDMLTLQMLR) in human PBMC at 1 uM.
For test [4], the target named is Tyrosine-protein kinase CSK (Homo sapiens) (UniProt P41240). The test is described as follows: Inhibition of CSK labeling at conserved Lys2 (VSDFGLTKEASSTQDTGKLPVK) in human PBMC at 0.1 uM.
Test [5] concerns the target Calcium/calmodulin-dependent protein kinase type II subunit delta (Homo sapiens) (UniProt Q13557). The test is described as follows: Inhibition of CaMK2d labeling at conserved Lys2 (DLKPENLLLASK) in human PBMC at 1 uM.
In test [6] the target is Mitogen-activated protein kinase 7 (Homo sapiens) (UniProt Q13164). The experiment in a line: Inhibition of Erk5 conserved Lys2 (DLKPSNLLVNENCELK) in human PBMC at 1 uM.
The target of test [7] is Cyclin-dependent kinase 2 (Homo sapiens) (UniProt P24941). The test is described as follows: Inhibition of CDK2 labeling at conserved Lys2 (DLKPQNLLINTEGAIK) in human PBMC at 0.1 uM.
Test [8] has as its target Serine/threonine-protein kinase Chk2 (Homo sapiens) (UniProt O96017). The experiment in a line: Inhibition of CHK2 labeling at conserved Lys1 (VAIKIISK) in human PBMC at 1 uM.
Test [9] concerns the target T1, Tyrosine-protein kinase JAK3 (Homo sapiens) (UniProt P52333).
T1 sequence (whole entry): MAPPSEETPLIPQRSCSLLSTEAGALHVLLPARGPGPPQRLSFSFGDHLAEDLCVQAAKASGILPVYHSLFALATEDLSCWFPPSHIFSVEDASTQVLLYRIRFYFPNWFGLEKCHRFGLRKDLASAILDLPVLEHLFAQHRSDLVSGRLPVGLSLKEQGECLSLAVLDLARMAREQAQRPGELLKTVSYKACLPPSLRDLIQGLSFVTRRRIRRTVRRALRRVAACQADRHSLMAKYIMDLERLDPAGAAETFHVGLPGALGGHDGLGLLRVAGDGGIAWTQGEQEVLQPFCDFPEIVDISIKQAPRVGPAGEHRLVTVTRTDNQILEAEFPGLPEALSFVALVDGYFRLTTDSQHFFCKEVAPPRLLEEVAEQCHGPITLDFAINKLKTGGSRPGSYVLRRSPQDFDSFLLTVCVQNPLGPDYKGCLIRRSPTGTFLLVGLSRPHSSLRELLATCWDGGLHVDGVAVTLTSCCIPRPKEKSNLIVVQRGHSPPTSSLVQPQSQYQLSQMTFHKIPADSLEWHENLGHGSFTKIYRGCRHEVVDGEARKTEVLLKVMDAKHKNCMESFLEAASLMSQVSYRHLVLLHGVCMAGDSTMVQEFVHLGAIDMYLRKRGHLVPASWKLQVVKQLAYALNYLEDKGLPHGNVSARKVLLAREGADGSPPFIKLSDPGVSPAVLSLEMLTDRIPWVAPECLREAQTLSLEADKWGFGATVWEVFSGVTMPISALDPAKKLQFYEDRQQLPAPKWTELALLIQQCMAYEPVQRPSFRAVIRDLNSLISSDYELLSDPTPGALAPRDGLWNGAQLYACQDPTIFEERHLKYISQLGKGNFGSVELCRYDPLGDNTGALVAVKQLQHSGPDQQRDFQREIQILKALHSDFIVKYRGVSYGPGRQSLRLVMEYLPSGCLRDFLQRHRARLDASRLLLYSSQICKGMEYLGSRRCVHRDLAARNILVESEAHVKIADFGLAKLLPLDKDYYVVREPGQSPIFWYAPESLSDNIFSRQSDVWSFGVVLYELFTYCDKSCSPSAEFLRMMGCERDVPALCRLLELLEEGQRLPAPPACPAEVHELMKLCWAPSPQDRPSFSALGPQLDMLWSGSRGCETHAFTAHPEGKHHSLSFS
The experiment in a line: Inhibition of JAK3 domain2 conserved Lys1 (YDPLGDNTGALVAVKQLQHSGPDQQR) in human PBMC at 0.1 uM.

Test [10] deals with NUAK family SNF1-like kinase 2 (Homo sapiens) (UniProt Q9H093). The experiment in a line: Inhibition of NuaK2 conserved Lys1 (LVAIKSIR) in human PBMC at 1 uM.
Test [11] addresses T2, Serine/threonine-protein kinase 4 (Homo sapiens) (UniProt Q13043).
T2 sequence (whole entry): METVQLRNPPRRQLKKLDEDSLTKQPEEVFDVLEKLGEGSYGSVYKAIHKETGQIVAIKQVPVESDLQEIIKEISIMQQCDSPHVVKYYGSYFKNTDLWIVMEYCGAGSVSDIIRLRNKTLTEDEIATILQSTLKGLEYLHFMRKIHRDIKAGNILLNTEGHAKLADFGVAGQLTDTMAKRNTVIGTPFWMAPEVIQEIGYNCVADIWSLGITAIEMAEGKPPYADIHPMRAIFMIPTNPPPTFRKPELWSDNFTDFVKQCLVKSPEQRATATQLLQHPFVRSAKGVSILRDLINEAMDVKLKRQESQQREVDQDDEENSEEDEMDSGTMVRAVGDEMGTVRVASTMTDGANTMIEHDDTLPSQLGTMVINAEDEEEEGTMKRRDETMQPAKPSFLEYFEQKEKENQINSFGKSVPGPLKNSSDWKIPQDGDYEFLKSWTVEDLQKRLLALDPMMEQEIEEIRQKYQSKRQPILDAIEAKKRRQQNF
The experiment in a line: Inhibition of MST1 conserved Lys2 (DIKAGNILLNTEGHAK) in human PBMC at 1 uM.

For test [12], the target named is Cyclin-dependent kinase 11B (Homo sapiens) (UniProt P21127). The experiment in a line: Inhibition of CDK11 labeling at conserved Lys2 (DLKPANILVMGEGPER) in human PBMC at 1 uM.

Sequence of Ribosomal protein S6 kinase alpha-5 (Homo sapiens) (O75582 whole entry, looked up, the tested form may be a part, canonical isoform): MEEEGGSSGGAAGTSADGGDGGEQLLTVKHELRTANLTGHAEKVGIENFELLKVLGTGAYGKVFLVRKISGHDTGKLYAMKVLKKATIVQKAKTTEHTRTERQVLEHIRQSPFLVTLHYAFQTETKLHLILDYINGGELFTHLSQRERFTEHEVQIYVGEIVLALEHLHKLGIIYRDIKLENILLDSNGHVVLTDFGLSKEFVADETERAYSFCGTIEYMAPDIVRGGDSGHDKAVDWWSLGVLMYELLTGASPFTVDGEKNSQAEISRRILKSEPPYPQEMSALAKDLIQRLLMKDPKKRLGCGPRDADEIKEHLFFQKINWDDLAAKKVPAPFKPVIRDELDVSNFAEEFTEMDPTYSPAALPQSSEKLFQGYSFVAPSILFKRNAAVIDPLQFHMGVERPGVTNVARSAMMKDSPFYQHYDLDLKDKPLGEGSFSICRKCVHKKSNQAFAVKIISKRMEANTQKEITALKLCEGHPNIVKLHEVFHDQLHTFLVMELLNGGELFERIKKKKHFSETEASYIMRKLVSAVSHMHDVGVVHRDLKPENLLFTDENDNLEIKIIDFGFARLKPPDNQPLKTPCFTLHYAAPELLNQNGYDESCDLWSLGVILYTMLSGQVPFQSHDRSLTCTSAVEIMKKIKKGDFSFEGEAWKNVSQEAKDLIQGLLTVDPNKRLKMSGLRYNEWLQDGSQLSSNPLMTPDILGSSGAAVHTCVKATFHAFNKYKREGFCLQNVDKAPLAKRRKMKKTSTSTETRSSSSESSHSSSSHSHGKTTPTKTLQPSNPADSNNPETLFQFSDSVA
Sequence of Cyclin-dependent kinase 5 (Homo sapiens) (Q00535 whole entry, looked up, the tested form may be a part): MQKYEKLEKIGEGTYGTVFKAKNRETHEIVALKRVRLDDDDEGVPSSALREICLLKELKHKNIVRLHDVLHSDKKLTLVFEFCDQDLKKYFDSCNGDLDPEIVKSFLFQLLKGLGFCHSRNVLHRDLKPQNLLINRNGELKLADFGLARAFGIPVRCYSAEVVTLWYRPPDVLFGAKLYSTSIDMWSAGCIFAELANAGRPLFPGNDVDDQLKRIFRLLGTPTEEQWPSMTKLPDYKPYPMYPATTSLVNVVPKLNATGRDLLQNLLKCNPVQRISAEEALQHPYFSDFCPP
Sequence of Phosphatidylinositol 4,5-bisphosphate 3-kinase catalytic subunit beta isoform (Homo sapiens) (P42338 whole entry, looked up, canonical isoform): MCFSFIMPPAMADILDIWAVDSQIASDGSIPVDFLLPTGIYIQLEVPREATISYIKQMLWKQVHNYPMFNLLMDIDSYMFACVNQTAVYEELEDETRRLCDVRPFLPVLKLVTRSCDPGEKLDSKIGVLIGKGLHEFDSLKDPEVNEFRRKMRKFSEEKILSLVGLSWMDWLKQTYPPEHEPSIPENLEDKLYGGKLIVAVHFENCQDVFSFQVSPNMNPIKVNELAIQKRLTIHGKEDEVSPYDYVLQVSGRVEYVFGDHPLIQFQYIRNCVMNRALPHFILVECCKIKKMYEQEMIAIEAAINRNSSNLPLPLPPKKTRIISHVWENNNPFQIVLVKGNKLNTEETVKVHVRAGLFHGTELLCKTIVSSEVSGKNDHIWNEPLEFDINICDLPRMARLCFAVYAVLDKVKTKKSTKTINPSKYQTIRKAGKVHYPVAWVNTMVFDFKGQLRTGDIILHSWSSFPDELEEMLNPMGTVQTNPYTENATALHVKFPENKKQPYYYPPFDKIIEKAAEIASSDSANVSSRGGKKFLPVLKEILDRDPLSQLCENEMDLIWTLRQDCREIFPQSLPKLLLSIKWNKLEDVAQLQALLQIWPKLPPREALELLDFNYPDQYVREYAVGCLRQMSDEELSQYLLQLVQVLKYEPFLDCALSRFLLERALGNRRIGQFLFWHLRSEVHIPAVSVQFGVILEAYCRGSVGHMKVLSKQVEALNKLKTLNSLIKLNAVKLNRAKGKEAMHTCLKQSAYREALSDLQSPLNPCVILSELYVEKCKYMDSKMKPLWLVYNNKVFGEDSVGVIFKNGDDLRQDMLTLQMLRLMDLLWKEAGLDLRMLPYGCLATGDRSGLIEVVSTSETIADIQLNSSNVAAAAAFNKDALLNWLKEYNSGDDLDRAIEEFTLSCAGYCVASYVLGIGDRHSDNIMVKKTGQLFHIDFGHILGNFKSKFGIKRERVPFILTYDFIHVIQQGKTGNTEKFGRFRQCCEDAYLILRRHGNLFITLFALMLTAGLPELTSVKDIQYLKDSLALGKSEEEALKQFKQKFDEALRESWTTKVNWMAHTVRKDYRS
Sequence of NUAK family SNF1-like kinase 2 (Homo sapiens) (Q9H093 whole entry): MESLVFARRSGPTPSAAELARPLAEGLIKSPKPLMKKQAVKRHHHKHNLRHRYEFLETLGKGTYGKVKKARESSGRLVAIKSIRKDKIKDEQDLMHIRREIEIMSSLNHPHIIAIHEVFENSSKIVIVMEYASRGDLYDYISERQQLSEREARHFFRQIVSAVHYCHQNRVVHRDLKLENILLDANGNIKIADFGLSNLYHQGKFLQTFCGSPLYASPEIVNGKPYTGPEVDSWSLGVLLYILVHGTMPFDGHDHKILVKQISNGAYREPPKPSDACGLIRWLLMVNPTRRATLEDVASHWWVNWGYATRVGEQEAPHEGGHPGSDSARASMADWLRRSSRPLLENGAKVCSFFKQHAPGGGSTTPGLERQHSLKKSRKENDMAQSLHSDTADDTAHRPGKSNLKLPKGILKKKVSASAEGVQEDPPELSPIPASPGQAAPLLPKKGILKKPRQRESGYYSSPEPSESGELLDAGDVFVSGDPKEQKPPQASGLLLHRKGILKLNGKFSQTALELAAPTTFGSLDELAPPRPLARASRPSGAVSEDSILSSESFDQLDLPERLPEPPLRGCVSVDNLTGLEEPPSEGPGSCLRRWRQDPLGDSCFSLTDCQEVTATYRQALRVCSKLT
Sequence of Serine/threonine-protein kinase Chk2 (Homo sapiens) (O96017 whole entry): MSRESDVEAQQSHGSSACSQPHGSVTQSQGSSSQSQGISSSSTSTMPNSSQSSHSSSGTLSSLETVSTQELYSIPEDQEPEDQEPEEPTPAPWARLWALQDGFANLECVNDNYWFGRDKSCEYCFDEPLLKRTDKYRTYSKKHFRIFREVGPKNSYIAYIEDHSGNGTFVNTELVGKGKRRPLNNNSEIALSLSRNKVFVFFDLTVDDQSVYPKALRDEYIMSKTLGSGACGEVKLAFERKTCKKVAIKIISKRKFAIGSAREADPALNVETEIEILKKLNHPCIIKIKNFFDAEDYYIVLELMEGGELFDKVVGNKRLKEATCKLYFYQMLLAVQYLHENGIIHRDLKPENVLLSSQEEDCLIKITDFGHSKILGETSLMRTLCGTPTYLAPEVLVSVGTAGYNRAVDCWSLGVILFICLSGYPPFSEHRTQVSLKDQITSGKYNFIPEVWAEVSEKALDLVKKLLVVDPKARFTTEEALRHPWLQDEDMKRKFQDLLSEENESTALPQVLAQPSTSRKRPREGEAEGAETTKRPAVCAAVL
Sequence of Tyrosine-protein kinase CSK (Homo sapiens) (P41240 2-450 limits assumed): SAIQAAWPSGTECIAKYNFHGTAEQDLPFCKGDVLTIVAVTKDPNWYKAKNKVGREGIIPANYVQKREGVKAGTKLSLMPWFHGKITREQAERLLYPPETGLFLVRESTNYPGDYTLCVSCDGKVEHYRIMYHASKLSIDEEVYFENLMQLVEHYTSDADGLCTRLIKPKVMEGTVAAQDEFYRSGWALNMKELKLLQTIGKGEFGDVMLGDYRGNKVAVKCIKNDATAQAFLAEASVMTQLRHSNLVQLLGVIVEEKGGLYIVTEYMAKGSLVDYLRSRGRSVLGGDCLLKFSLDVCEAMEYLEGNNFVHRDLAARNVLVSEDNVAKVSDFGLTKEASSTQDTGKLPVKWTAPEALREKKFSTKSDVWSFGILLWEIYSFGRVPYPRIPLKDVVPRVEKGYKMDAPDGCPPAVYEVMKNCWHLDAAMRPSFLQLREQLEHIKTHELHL
Sequence of Calcium/calmodulin-dependent protein kinase type II subunit delta (Homo sapiens) (Q13557 whole entry): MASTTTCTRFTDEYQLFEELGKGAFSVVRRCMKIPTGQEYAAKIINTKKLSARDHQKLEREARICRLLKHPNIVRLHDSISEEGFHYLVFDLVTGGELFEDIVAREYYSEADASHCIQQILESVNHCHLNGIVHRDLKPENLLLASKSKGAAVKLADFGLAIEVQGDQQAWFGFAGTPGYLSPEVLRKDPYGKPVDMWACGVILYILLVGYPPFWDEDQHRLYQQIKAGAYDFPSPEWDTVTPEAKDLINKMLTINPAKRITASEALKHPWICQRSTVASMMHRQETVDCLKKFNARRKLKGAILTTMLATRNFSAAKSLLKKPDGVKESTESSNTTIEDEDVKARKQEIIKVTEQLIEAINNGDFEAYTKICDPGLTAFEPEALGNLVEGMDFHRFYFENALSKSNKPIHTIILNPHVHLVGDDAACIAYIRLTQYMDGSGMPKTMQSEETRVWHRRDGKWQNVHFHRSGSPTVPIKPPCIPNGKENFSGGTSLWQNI

On to `CC(C)n1cc(-c2cc(-c3ccc(CN4CCOCC4)cc3)cnc2N)nn1`, for which the inhibition is 8.9% in test [1]; 33.6% in test [2]; 21.2% in test [3]; -9.6% in test [4]; -0.4% in [5]; 30% in [6]. The inhibition is 19.2% in test [7]; 9.1% in [8]; -8% in test [9]; -8.4% in test [10]; 0% in test [11]; 1.5% in test [12].
